Measured values taken from patent publication US7576071B2, “Antithrombotic compound” (sanofi-aventis, priority 2004, dated 2009).

Key:
Bovine factor Xa = assay: Determination of anti-factor Xa activity in buffer (microtiter plate method, AT-III mediated); type: biochemical; details: Kabi buffer, human AT-III
Excerpt: II. Determination of Anti-Factor Xa Activity in Buffer
(Microtiter Plate Method)
Anticoagulants can inhibit Xa directly or, like heparin, by potentiating the inhibitory activity of AT-III. Anti-Xa activity can be assessed by determination of the rate of hydrolysis of the chromogenic substrate S-2222 in the presence of AT-III. This assay is used to determine anti-Xa activity of heparinoid preparations in Kabi buffer.
Test medium: Kabi buffer.
Ref. compound: International standard heparin (11.4 anti-Xa U/mg).
Composition of the buffer: NaCl 10.17 g (174 mmol); edetate disodium dihydrate 3.26 g (9.6 mmol); tromethamine (Tris) 6.11 g (50.4 mmol); made up to 1 L with ultrapure H2O *. The pH of the solution is adjusted to 7.4 with hydrochloric acid (0.10 mol/L)
Bovine factor Xa (Kabi Diagnostica, Stockholm, Sweden) is dissolved in Kabi buffer to give a solution containing 1.5 U/mL (0.75 nKat/mL). • 3. S-2222 solution
S-2222 (Kabi Diagnostica) is dissolved in ultrapure H2O to give a solution containing 0.375 mg/mL (0.5 mmol/L). • 4. AT-III solution
Human AT-III (Kabi Diagnostica) is dissolved in Kabi buffer to give a solution containing 0.25 U/mL. A fresh solution has to be prepared daily. • 5. Standard solution of the calibration sample
Standard heparin is dissolved in Kabi buffer to give a standard solution containing approx. 0.25 anti-Xa U/mL.
Each preparation is dissolved in ultrapure H2O and diluted with Kabi buffer to the required concentrations in the range of 0.02-0.2 anti-Xa U/mL
Each test sample (0.05 mL) is pipetted into a well of a microtiter plate at RT. AT-III solution (0.05 mL) is added to each sample and the plate is shaken using a Vari-shaker.
An aliquot of Xa solution (0.05 mL) is pipetted into each well 10 min following addition of AT-III solution and the plate is shaken again. Exactly 2 min following addition of Xa solution, 0.1 mL S-2222 solution is pipetted into each well and the plate is shaken again. For all additions a 12-channel pipette is used.
The remaining amount of Xa catalyses the hydrolysis of S-2222, the rate of which is measured photometrically following incubation periods of 2 and 22 min respectively at RT. The absorbance of each sample is measured at 405 nm using a Reader Microelisa, model 310C (Organon Teknika, Oss, The Netherlands) and the increase in absorbance (ΔOD) is calculated. Each test sample is determined in duplicate. With every 10 samples, a blank (0.05 mL Kabi buffer) is included.
From an aliquot of the standard solution of the calibration sample a range of dilutions is made (dilution factor 1,3 for heparin samples). The resulting standard samples (approx. 15 samples) should contain between 0.01-0.25 anti-Xa U/mL. […]
For each sample the mean anti-Xa activity in U/mL is determined using the calibration curve. […]

[1] = test system: human platelets (platelet rich plasma), ADP-induced aggregation; assay: In vitro test for inhibition of human platelet aggregation induced by ADP; type: cell-based; details: 5 μM ADP; human PRP; mean of n experiments; entries marked b measured with a Chronolog aggregometer, others with micro plate reader; read-out: Inhibition of ADP-induced (5 μM) human platelet aggregation (IC50), mean
Excerpt: I.a. In vitro Test for Inhibition of Human Platelet Aggregation Induced by ADP
Addition of adenosine diphosphate (ADP) to human platelet rich plasma (PRP) in vitro induces platelet aggregation. This aggregation can be assessed by measuring the optical density (OD) of the PRP. The in vitro test described here was used to determine the inhibitory activity of a test compound on the ADP-induced aggregation of human platelets. A micro plate reader is used to measure the activity of several compounds simultaneously.
An alternative vehicle is 0.9% NaCl in MQ H2O. The compound solution (either in MQ H2O or 0.9% NaCl in MQ H2O) is further diluted in 0.9% NaCl in MQ H2O.
Free-flowing blood (at least 100 mL) is taken from a healthy volunteer and collected in 0.1 volume 3.8% sodium citrate. 2H2O in distilled H2O (w/v). The final concentration is 0.38% sodium citrate.
The citrated blood is centrifuged at 1,600 N/kg (160 g) at RT. After 15 min, centrifugation is discontinued with the brake turned off and the supernatant (=PRP) is collected. • 2. ADP (Kordia/Chrono-par # 384). Before use, a solution of 50 μM in 0.9% NaCl is prepared. Equipment • 1. Sysmex blood cell counter model KX-21. • 2. Labsystems iEMS reader MF with a 620 nm filter, an orbital shaker set at 1,000 rpm and a constant temperature of 37° C. Absorption is measured with the Labsystems iEMS program. • 3. Blood collection system 600 mL with needle, art P4203 (NPBI). • 4. 96 wells flat bottom micro plates (Greiner Labortechnik). Procedure
The platelets in the supernatant (PRP) are counted using a Sysmex blood cell counter and the supernatant is diluted with PPP to obtain a PRP containing 400,000±50,000 plt/μL. PRP should stabilize at RT for at least 20 min but not longer than 3 h.
150 μL PRP is pipetted into a well of the micro plate. 30 μL test compound in a range of concentrations (7 concentrations per compound) or vehicle is added and the micro plate is placed in the Labsystems iEMS reader MF at 37° C. The optical density (OD620) is then measured at 620 nm. After shaking for 2 min in the reader (1,000 rpm), the OD is measured for the second time. This is to verify the stability of the platelets (absence of spontaneous platelet aggregation). Then, 20 μL of 50 μM ADP solution is added and the OD is kinetically measured every min for 14 min at 620 nm (FIG. 1). Between two measurements, the plate is shaking for 40 seconds at 1,000 rpm. Each test compound is investigated in at least 2 experiments using PRP from different volunteers.
The mean OD at each compound concentration (including vehicle) is calculated at t=0 min and t=10 min. The percentage inhibition at each concentration is calculated using the formula: […]
The IC50 of the test compound is the concentration of the test compound at which the ADP-induced platelet aggregation is reduced by 50%. For this, the percentage inhibition values are plotted against compound concentration. Then, IC50, nH (Hill slope) and efficacy of the test compound is calculated using Graphpad Prism 3.0 (with variable slope).
Reference: Salmon, D. M. (1996) Thrombosis Research 84, 213-216.

Methyl O-2,3-di-O-methyl-4-O-<<12-N-<N-(3-keto-benzenesulfonyl)-4-O-{4-(4-piperidinyl)-butyl}-L-tyrosine>-12-aza-3,6,9-trioxa-dodecyl>>-6-O-sulfo-alpha-D-glucopyranosyl-(1->4)-O-2,3-di-O-methyl-beta-D-glucopyranuronosyl-(1->4)-O-2,3,6-tri-O-sulfo-alpha-D-glucopyranosyl-(1->4)-O-2,3-di-O-methyl-alpha-L-idopyranuronosyl-(1>4)-3-O-methyl-2,6-di-O-sulfo-alpha-D-glucopyranoside octakis sodium salt [XIV]
Anti-Xa activity (Bovine factor Xa; substrate S-2222, calibrated against standard heparin): 735 ± 107 U/mg | Anti-Xa activity (Bovine factor Xa; substrate S-2222, per nmol (from U/mg and Mw)): 1.68 U/nmol | IC50 [1]: 630 nM
